One experiment addresses T1, ASIC3 G445C (Rattus norvegicus, UniProt O35240, G445C).
T1 construct: rASIC3 G445C co-expressed with wildtype ASIC3 at a 10:1 ratio in CHO-K1 cells; with wildtype ASIC3 (heteromultimeric channels)
T1 sequence (O35240 1-533 G445C): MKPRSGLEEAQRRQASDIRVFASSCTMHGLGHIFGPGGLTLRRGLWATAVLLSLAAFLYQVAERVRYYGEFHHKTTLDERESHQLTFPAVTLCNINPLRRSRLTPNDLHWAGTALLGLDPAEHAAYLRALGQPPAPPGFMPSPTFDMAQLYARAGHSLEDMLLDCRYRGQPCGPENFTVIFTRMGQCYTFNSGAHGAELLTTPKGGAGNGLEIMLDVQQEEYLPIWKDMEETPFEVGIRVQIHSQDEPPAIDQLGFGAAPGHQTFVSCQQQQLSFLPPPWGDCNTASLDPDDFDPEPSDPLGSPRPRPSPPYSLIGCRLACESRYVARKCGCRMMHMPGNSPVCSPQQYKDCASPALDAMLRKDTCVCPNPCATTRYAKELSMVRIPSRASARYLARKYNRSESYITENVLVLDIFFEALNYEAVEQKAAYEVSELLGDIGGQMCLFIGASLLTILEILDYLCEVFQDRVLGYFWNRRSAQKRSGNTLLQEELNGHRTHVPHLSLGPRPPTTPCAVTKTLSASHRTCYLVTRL
The experiment in a line: whole-cell patch clamp, block of pH 6-evoked currents. It counts as cell-based. The text has this:
whole-cell patch clamp, block of pH 6-evoked currents on ASIC3 G445C | G445C mutation partially blunted the inhibitory action of amiloride on ASIC3 currents when compared to wildtype ASIC3 channels
A general note: In patch-clamp work, channel activity is measured electrically.

In experiment [1] the target is T2, Acid-Sensing Ion Channel 3 (ASIC3) (Rattus norvegicus, UniProt O35240).
T2 construct: Rat ASIC3 in pMT3 vector, expressed in CHO-K1 cells
T2 sequence (O35240 1-533): T1 sequence (O35240 1-533 G445C) with C445G
The description is as above. Type of experiment: cell-based.

Each structure is given as a SMILES string. Residue numbers refer to the chain shown, from its start.

The record followed here is paper PMC8555766, “Paradoxical Potentiation of Acid-Sensing Ion Channel 3 (ASIC3) by Amiloride via Multiple Mechanisms and Sites Within the Channel” (Frontiers in Physiology, 2021).

For orientation: IC50 means the concentration that gives 50% inhibition. Read a low IC50 as greater potency in that assay.

With `N=C(N)NC(=O)c1nc(Cl)c(N)nc1N` [amiloride], the figures for the 50% inhibitory concentration (IC50) (on ASIC3 G445C; in experiment [1]) were 17.3 µM and 18.6 µM, respectively.
